# Assay results: PubChem BioAssay (NCI)
#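 Method: 48-hour compound exposure of cells in 96-well plates, five concentrations, linear interpolation of endpoints. TGI: total growth inhibition.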
# What was measured:
# Assay in all cases: NCI tumour cell line growth inhibition, 48 h
# SNB-75 CNS = system: SNB-75 CNS
# NCI-H460 lung = system: NCI-H460 lung
# NCI-H23 lung = system: NCI-H23 lung
# UO-31 renal = system: UO-31 renal
# OVCAR-8 ovarian = system: OVCAR-8 ovarian
# CAKI-1 renal = system: CAKI-1 renal
# SN12C renal = system: SN12C renal
# HCC-2998 colon = system: HCC-2998 colon
# CCRF-CEM leukemia = system: CCRF-CEM leukemia
# SR leukemia = system: SR leukemia
# U251 CNS = system: U251 CNS
# SF-539 CNS = system: SF-539 CNS
# OVCAR-4 ovarian = system: OVCAR-4 ovarian
# MOLT-4 leukemia = system: MOLT-4 leukemia
# DMS 273 small cell lung = system: DMS 273 small cell lung
# SW-620 colon = system: SW-620 colon
# HCT-116 colon = system: HCT-116 colon
# RXF 393 renal = system: RXF 393 renal
# RXF-631 renal = system: RXF-631 renal
# COLO 205 colon = system: COLO 205 colon
# SK-OV-3 ovarian = system: SK-OV-3 ovarian
# LOX IMVI melanoma = system: LOX IMVI melanoma
# SF-268 CNS = system: SF-268 CNS
# TK-10 renal = system: TK-10 renal
# SNB-19 CNS = system: SNB-19 CNS
# DLD-1 colon = system: DLD-1 colon
# NCI-H522 lung = system: NCI-H522 lung
# LXFL 529 NSCLC = system: LXFL 529 NSCLC
# M19-MEL melanoma = system: M19-MEL melanoma
# UACC-257 melanoma = system: UACC-257 melanoma
# M14 melanoma = system: M14 melanoma
# SK-MEL-28 melanoma = system: SK-MEL-28 melanoma
# OVCAR-5 ovarian = system: OVCAR-5 ovarian
# KM20L2 colon = system: KM20L2 colon
# HOP-62 NSCLC = system: HOP-62 NSCLC
# HL-60(TB) leukemia = system: HL-60(TB) leukemia
# SNB-78 CNS = system: SNB-78 CNS
# EKVX NSCLC = system: EKVX NSCLC
# SK-MEL-2 melanoma = system: SK-MEL-2 melanoma
# 786-0 renal = system: 786-0 renal
# KM12 colon = system: KM12 colon
# ACHN renal = system: ACHN renal
# IGROV1 ovarian = system: IGROV1 ovarian
# MALME-3M melanoma = system: MALME-3M melanoma
# XF 498 CNS = system: XF 498 CNS
# UACC-62 melanoma = system: UACC-62 melanoma
# A498 renal = system: A498 renal
# SK-MEL-5 melanoma = system: SK-MEL-5 melanoma
# SF-295 CNS = system: SF-295 CNS
# K-562 leukemia = system: K-562 leukemia
# OVCAR-3 ovarian = system: OVCAR-3 ovarian
# HT29 colon = system: HT29 colon
# NCI-H226 lung = system: NCI-H226 lung
# A549 NSCLC = system: A549 NSCLC
# RPMI-8226 leukemia = system: RPMI-8226 leukemia
# HCT-15 colon = system: HCT-15 colon
# DMS 114 small cell lung = system: DMS 114 small cell lung
# HOP-92 NSCLC = system: HOP-92 NSCLC
smiles,measurement,setting,value
COc1ccc(=[O+]C)c2nssc1-2,TGI,SNB-75 CNS,> 100 µM
same,TGI,NCI-H460 lung,> 100 µM
same,TGI,NCI-H23 lung,> 100 µM
same,TGI,UO-31 renal,> 100 µM
same,TGI,OVCAR-8 ovarian,> 100 µM
same,TGI,CAKI-1 renal,> 100 µM
same,TGI,SN12C renal,> 100 µM
same,TGI,HCC-2998 colon,> 100 µM
same,TGI,CCRF-CEM leukemia,> 100 µM
same,TGI,SR leukemia,> 100 µM
same,TGI,U251 CNS,79.6 µM
same,TGI,SF-539 CNS,48.7 µM
same,TGI,OVCAR-4 ovarian,> 100 µM
same,TGI,MOLT-4 leukemia,> 100 µM
same,TGI,DMS 273 small cell lung,> 100 µM
same,TGI,SW-620 colon,> 100 µM
same,TGI,HCT-116 colon,> 100 µM
same,TGI,RXF 393 renal,> 100 µM
same,TGI,RXF-631 renal,> 100 µM
same,TGI,COLO 205 colon,> 100 µM
same,TGI,SK-OV-3 ovarian,> 100 µM
same,TGI,LOX IMVI melanoma,> 100 µM
same,TGI,SF-268 CNS,> 100 µM
same,TGI,TK-10 renal,> 100 µM
same,TGI,SNB-19 CNS,> 100 µM
same,TGI,DLD-1 colon,> 100 µM
same,TGI,NCI-H522 lung,> 100 µM
same,TGI,LXFL 529 NSCLC,> 100 µM
same,TGI,M19-MEL melanoma,40.2 µM
same,TGI,UACC-257 melanoma,71.5 µM
same,TGI,M14 melanoma,> 100 µM
same,TGI,SK-MEL-28 melanoma,> 100 µM
same,TGI,OVCAR-5 ovarian,> 100 µM
same,TGI,KM20L2 colon,> 100 µM
same,TGI,HOP-62 NSCLC,> 100 µM
same,TGI,HL-60(TB) leukemia,> 100 µM
same,TGI,SNB-78 CNS,> 100 µM
same,TGI,EKVX NSCLC,> 100 µM
same,TGI,SK-MEL-2 melanoma,> 100 µM
same,TGI,786-0 renal,> 100 µM
same,TGI,KM12 colon,> 100 µM
same,TGI,ACHN renal,> 100 µM
same,TGI,IGROV1 ovarian,> 100 µM
same,TGI,MALME-3M melanoma,> 100 µM
same,TGI,XF 498 CNS,> 100 µM
same,TGI,UACC-62 melanoma,67.7 µM
same,TGI,A498 renal,> 100 µM
same,TGI,SK-MEL-5 melanoma,35.8 µM
same,TGI,SF-295 CNS,> 100 µM
same,TGI,K-562 leukemia,> 100 µM
same,TGI,OVCAR-3 ovarian,> 100 µM
same,TGI,HT29 colon,> 100 µM
same,TGI,NCI-H226 lung,> 100 µM
same,TGI,A549 NSCLC,> 100 µM
COc1ccc2c(c1)[n+]([O-])c(-c1c(Cl)cccc1Cl)c(N)[n+]2[O-],TGI,SNB-75 CNS,> 100 µM
same,TGI,NCI-H460 lung,> 100 µM
same,TGI,NCI-H23 lung,63.7 µM
same,TGI,UO-31 renal,> 100 µM
same,TGI,OVCAR-8 ovarian,> 100 µM
same,TGI,CAKI-1 renal,> 100 µM
same,TGI,SN12C renal,> 100 µM
same,TGI,HCC-2998 colon,> 100 µM
same,TGI,RPMI-8226 leukemia,> 100 µM
same,TGI,CCRF-CEM leukemia,> 100 µM
same,TGI,U251 CNS,> 100 µM
same,TGI,OVCAR-4 ovarian,> 100 µM
same,TGI,HCT-15 colon,> 100 µM
same,TGI,MOLT-4 leukemia,> 100 µM
same,TGI,DMS 273 small cell lung,> 100 µM
same,TGI,SW-620 colon,> 100 µM
same,TGI,RXF-631 renal,60.1 µM
same,TGI,COLO 205 colon,71.6 µM
same,TGI,SK-OV-3 ovarian,> 100 µM
same,TGI,LOX IMVI melanoma,> 100 µM
same,TGI,SF-268 CNS,> 100 µM
same,TGI,TK-10 renal,> 100 µM
same,TGI,SNB-19 CNS,> 100 µM
same,TGI,DLD-1 colon,> 100 µM
same,TGI,LXFL 529 NSCLC,> 100 µM
same,TGI,M19-MEL melanoma,> 100 µM
same,TGI,UACC-257 melanoma,61.8 µM
same,TGI,M14 melanoma,> 100 µM
same,TGI,SK-MEL-28 melanoma,84 µM
same,TGI,OVCAR-5 ovarian,> 100 µM
same,TGI,KM20L2 colon,> 100 µM
same,TGI,HL-60(TB) leukemia,> 100 µM
same,TGI,SNB-78 CNS,> 100 µM
same,TGI,EKVX NSCLC,> 100 µM
same,TGI,SK-MEL-2 melanoma,> 100 µM
same,TGI,DMS 114 small cell lung,> 100 µM
same,TGI,786-0 renal,> 100 µM
same,TGI,KM12 colon,> 100 µM
same,TGI,ACHN renal,> 100 µM
same,TGI,IGROV1 ovarian,> 100 µM
same,TGI,MALME-3M melanoma,48.4 µM
same,TGI,XF 498 CNS,> 100 µM
same,TGI,UACC-62 melanoma,> 100 µM
same,TGI,A498 renal,> 100 µM
same,TGI,SK-MEL-5 melanoma,42.9 µM
same,TGI,SF-295 CNS,> 100 µM
same,TGI,K-562 leukemia,> 100 µM
same,TGI,OVCAR-3 ovarian,> 100 µM
same,TGI,HT29 colon,> 100 µM
same,TGI,NCI-H226 lung,> 100 µM
same,TGI,A549 NSCLC,> 100 µM
same,TGI,HOP-92 NSCLC,> 100 µM
